Measurements published in US20200206196A1, “Antiviral Drugs” (priority 2017, published 2020).
Residues, ends and D or L forms follow the SMILES beside them.

Tests used:
HeV [1] = assay type: cell-based, Hendra virus
HeV [2] = assay type: cell-based, Hendra virus; remark: listed apart in the source
NiV = assay type: cell-based, Nipah virus
RSV = assay type: cell-based, RSV (strain A2)
[3] = test system: vesicular stomatitis virus (VSV); assay type: cell-based
[4] = test system: influenza A virus (A/WSN/33); assay type: cell-based, Influenza A/WSN/33 (H1N1)
HeLa cells [5] = experiment: Alamar blue assay of metabolic activity; assay type: cell-based; settings: HeLa cells treated for 26 h, vs vehicle or media
[6] = test system: HeV-F and HeV-G mediated cell-cell fusion; assay type: cell-based, Hendra virus
HeV [7] = assay type: cell-based, Hendra virus; remark: listed apart in the source
HeV [8] = assay type: cell-based, Hendra virus; remark: listed apart in the source
HeLa cells [9] = experiment: Cell viability: relative cell numbers (DAPI nuclei count); settings: 26 h post-treatment, concentrations resulting in antiviral activity

SMILES	HeV infection (HeV titres), dose response (HeV [1])	inhibition of viral protein synthesis (virus antigen levels per well) (HeV [2])	inhibition of virus-induced cell death (cell numbers per well) (HeV [2])	reduction in HeV titers (HeV [1]) [%]	reduction in virus titres, HeV (HeV [1])	reduction in virus titres, NiV (NiV)	reduction in virus titres, RSV (RSV)	reduction in virus titres, VSV [3]	reduction in virus titres, A/WSN/33 [4]	change in metabolic activity (Alamar blue) (HeLa cells [5])	cell-cell fusion of target cells with HeV-F/HeV-G effector cells [6]	intracellular viral RNA levels (HeV [7])	viral protein production (P protein and N protein) (HeV [8])	impact on cell numbers (HeLa cells [9])
CCOc1nc2cccc(C(=O)O)c2n1Cc1ccc(-c2ccccc2-c2nnn[nH]2)cc1 [Candesartan]	inhibited HeV infection in a dose-dependent manner													
CSCC[C@@H](C=O)NC(=O)[C@H](CC(C)C)NC(=O)[C@H](CC(C)C)NC(C)=O [calpain inhibitor II] (Ac-Leu-Leu-Met-aldehyde)		more effective than E64D	more effective than E64D											
CCCc1nc2c(C)cc(-c3nc4ccccc4n3C)cc2n1Cc1ccc(-c2ccccc2C(=O)O)cc1 [Telmisartan]	inhibited HeV infection in a dose-dependent manner			~95	significant reduction in virus titres	significant reduction in virus titres	significant reduction in virus titres	significant reduction in virus titres	not for A/WSN/33	no significant change in metabolic activity	comparable to target cells treated with vehicle	significantly reduced intracellular viral RNA levels	almost completely abolished	mild impact on cell numbers
